Test results from ChEMBL document CHEMBL6092220 (J Med Chem, 2024).
Active and inactive are the calls of the source. The calls are words filed in the database; no cut-off is given here.

What was measured:
[1] = biological target: T1, Protein cereblon/Signal transducer and activator of transcription 3 (Homo sapiens, UniProt P40763+Q96SW2); experiment: PROTAC activity at his-SUMO-tagged STAT3 (127 to 688 residues)/CRBN in human HeLa cells assessed as induction of STAT3 degradation incubated for 24 hrs by TECAN SPARK microplate reader analysis; type: cell-based
[2] = biological target: T1, Protein cereblon/Signal transducer and activator of transcription 3; experiment: PROTAC activity at his-SUMO-tagged STAT3 (127 to 688 residues)/CRBN in human HeLa cells assessed as induction of STAT3 degradation incubated for 24 hrs by TECAN SPARK microplate reader analysis relative to control; type: cell-based
[3] = biological target: T1, Protein cereblon/Signal transducer and activator of transcription 3; experiment: PROTAC activity at his-SUMO-tagged STAT3 (127 to 688 residues)/CRBN in human HeLa cells assessed as induction of STAT3 degradation upto 5 uM incubated for 24 hrs by TECAN SPARK microplate reader analysis; type: cell-based
[4] = biological target: T2, Protein cereblon/Signal transducer and activator of transcription 3 (Mus musculus) (UniProt P42227+Q8C7D2); experiment: In-vivo PROTAC activity at STAT3/CRBN in female CB17 SCID mouse assessed as reduction STAT3 level liver at 10 mg/kg, iv measured at 24 hrs by Western blot analysis; type: functional, organism-based; set-up: scale not given: the % may be the effect or the level left
[5] = biological target: T2, Protein cereblon/Signal transducer and activator of transcription 3 (Mus musculus); experiment: In-vivo PROTAC activity at STAT3/CRBN in female CB17 SCID mouse assessed as reduction STAT3 level spleen at 10 mg/kg, iv measured at 24 hrs by Western blot analysis; type: functional, organism-based; set-up: scale not given: the % may be the effect or the level left
[6] = Binding affinity to STAT5 (unknown origin) by FP assay; set-up: species or system Homo sapiens
[7] = biological target: T2, Protein cereblon/Signal transducer and activator of transcription 3 (Mus musculus); experiment: In-vivo PROTAC activity at STAT3/CRBN in female CB17 SCID mouse assessed as reduction STAT3 level liver at 10 mg/kg, iv measured at 48 hrs by Western blot analysis; type: functional, organism-based; set-up: scale not given: the % may be the effect or the level left
[8] = biological target: T2, Protein cereblon/Signal transducer and activator of transcription 3 (Mus musculus); experiment: In-vivo PROTAC activity at STAT3/CRBN in female CB17 SCID mouse assessed as reduction STAT3 level spleen at 10 mg/kg, iv measured at 48 hrs by Western blot analysis; type: functional, organism-based; set-up: scale not given: the % may be the effect or the level left
[9] = biological target: T2, Protein cereblon/Signal transducer and activator of transcription 3 (Mus musculus); experiment: In-vivo PROTAC activity at STAT3/CRBN in female CB17 SCID mouse assessed as reduction STAT3 level liver at 10 mg/kg, iv measured at 72 hrs by Western blot analysis; type: functional, organism-based; set-up: scale not given: the % may be the effect or the level left
[10] = biological target: T2, Protein cereblon/Signal transducer and activator of transcription 3 (Mus musculus); experiment: In-vivo PROTAC activity at STAT3/CRBN in female CB17 SCID mouse assessed as reduction STAT3 level spleen at 10 mg/kg, iv measured at 72 hrs by Western blot analysis; type: functional, organism-based; set-up: scale not given: the % may be the effect or the level left
[11] = Antiproliferative activity against human MOLM16 cells assessed as cell growth inhibition incubated for 4 days by celltiter-glo assay; type: functional, cell-based, MOLM-16; settings: MOLM16, 96 h
SU-DHL-1 = experiment: Antiproliferative activity against human SU-DHL-1 cells assessed as cell growth inhibition incubated for 4 days by celltiter-glo assay; type: functional, cell-based; settings: SU-DHL-1, 96 h
[12] = Antiproliferative activity against human SUPM2 cells assessed as cell growth inhibition incubated for 4 days by celltiter-glo assay; type: functional, cell-based; settings: SUP-M2, 96 h

| SMILES | DC50 [1] [nM] | Emax [2] [%] | also measured |
| --- | --- | --- | --- |
| CN1CC[C@H]2CC[C@@H](C(=O)N[C@@H](CCC(N)=O)C(=O)NC3(C(=O)N4CCC(CCC#Cc5cccc6c5CN(C5CCC(=O)NC5=O)C6=O)CC4)CCCCC3)N2C(=O)[C@@H](NC(=O)c2cc3cc(C(F)(F)P(=O)(O)O)ccc3s2)C1 (some centres not stated) | > 5000 | 0 | Activity [3]: inactive |
| CN1CC[C@H]2CC[C@@H](C(=O)N[C@@H](CCC(N)=O)C(=O)N[C@](C)(C(=O)N3CCC(CCC#Cc4cccc5c4CN(C4CCC(=O)NC4=O)C5=O)CC3)c3ccccc3)N2C(=O)[C@@H](NC(=O)c2cc3cc(C(F)(F)P(=O)(O)O)ccc3s2)C1 (some centres not stated) | > 5000 | 2 | Activity [3]: inactive |
| CN1CC[C@H]2CC[C@@H](C(=O)N[C@@H](CCC(N)=O)C(=O)N[C@H](CCC(=O)N3CCC(C#Cc4cccc5c4CN(C4CCC(=O)NC4=O)C5)CC3)c3ccccc3)N2C(=O)[C@@H](NC(=O)c2cc3cc(C(F)(F)P(=O)(O)O)ccc3s2)C1 (some centres not stated) | > 5000 | 31 |  |
| CN1CC[C@H]2CC[C@@H](C(=O)N[C@@H](CCC(N)=O)C(=O)N[C@@H](Cc3ccccc3)C(=O)N3CCC(CCC#Cc4cccc5c4CN(C4CCC(=O)NC4=O)C5=O)CC3)N2C(=O)[C@@H](NC(=O)c2cc3cc(C(F)(F)P(=O)(O)O)ccc3s2)C1 (some centres not stated) | 130 | 94 | Activity [4]: 60%; Activity [5]: 50%; IC50 [6]: > 10 nM |
| CN1CC[C@H]2CC[C@@H](C(=O)N[C@@H](CCC(N)=O)C(=O)N[C@H](C(=O)NCCCCCCCC#Cc3cccc4c3CN(C3CCC(=O)NC3=O)C4=O)c3ccccc3)N2C(=O)[C@@H](NC(=O)c2cc3cc(C(F)(F)P(=O)(O)O)ccc3s2)C1 (some centres not stated) | 1500 | 52 |  |
| CN1CC[C@H]2CC[C@@H](C(=O)N[C@@H](CCC(N)=O)C(=O)N[C@@H](C(=O)NCCCCCCCCC#Cc3cccc4c3CN(C3CCC(=O)NC3=O)C4=O)c3ccccc3)N2C(=O)[C@@H](NC(=O)c2cc3cc(C(F)(F)P(=O)(O)O)ccc3s2)C1 (some centres not stated) | 800 | 60 |  |
| CN1CC[C@H]2CC[C@@H](C(=O)N[C@@H](CCC(N)=O)C(=O)N[C@H](C(=O)NCCCCCCCCCC#Cc3cccc4c3CN(C3CCC(=O)NC3=O)C4)c3ccccc3)N2C(=O)[C@@H](NC(=O)c2cc3cc(C(F)(F)P(=O)(O)O)ccc3s2)C1 (some centres not stated) | 300 | 66 |  |
| CN1CC[C@H]2CC[C@@H](C(=O)N[C@@H](CCC(N)=O)C(=O)N[C@@H](Cc3ccc(F)c(F)c3)C(=O)N3CCC(CCC#Cc4cccc5c4CN(C4CCC(=O)NC4=O)C5=O)CC3)N2C(=O)[C@@H](NC(=O)c2cc3cc(C(F)(F)P(=O)(O)O)ccc3s2)C1 (some centres not stated) | 220 | 90 | Activity [4]: 80%; Activity [5]: 50% |
| CN1CC[C@H]2CC[C@@H](C(=O)N[C@@H](CCC(N)=O)C(=O)N[C@H](C(=O)NCCCCCC#Cc3cccc4c3CN(C3CCC(=O)NC3=O)C4=O)c3ccccc3)N2C(=O)[C@@H](NC(=O)c2cc3cc(C(F)(F)P(=O)(O)O)ccc3s2)C1 (some centres not stated) | > 5000 | 34 |  |
| CN1CC[C@H]2CC[C@@H](C(=O)N[C@@H](CCC(N)=O)C(=O)N[C@H](C(=O)NCCCC#Cc3cccc4c3CN(C3CCC(=O)NC3=O)C4=O)c3ccccc3)N2C(=O)[C@@H](NC(=O)c2cc3cc(C(F)(F)P(=O)(O)O)ccc3s2)C1 (some centres not stated) | > 5000 | 16 |  |
| CC(C)N1CC[C@H]2CC[C@@H](C(=O)N[C@@H](CCC(N)=O)C(=O)N[C@@H](Cc3ccc(F)c(F)c3)C(=O)N3CCC(CCC#Cc4cccc5c4CN(C4CCC(=O)NC4=O)C5=O)CC3)N2C(=O)[C@@H](NC(=O)c2cc3cc(C(F)(F)P(=O)(O)O)ccc3s2)C1 (some centres not stated) | 500 | 83 | Activity [4]: > 90%; Activity [5]: > 90%; Activity [7]: > 90%; Activity [8]: > 90%; Activity [9]: > 90%; Activity [10]: > 90%; IC50 [11]: 93 nM; IC50 (SU-DHL-1): 1780 nM; IC50 [12]: 1550 nM |
| CN1CC[C@H]2CC[C@@H](C(=O)N[C@@H](CCC(N)=O)C(=O)N[C@@H](C(=O)NCCCCCCC#Cc3cccc4c3CN(C3CCC(=O)NC3=O)C4=O)c3ccccc3)N2C(=O)[C@@H](NC(=O)c2cc3cc(C(F)(F)P(=O)(O)O)ccc3s2)C1 (some centres not stated) | > 5000 | 36 |  |
| NC(=O)CC[C@H](NC(=O)[C@@H]1CC[C@@H]2CCNC[C@H](NC(=O)c3cc4cc(C(F)(F)P(=O)(O)O)ccc4s3)C(=O)N21)C(=O)N[C@@H](Cc1ccc(F)c(F)c1)C(=O)N1CCC(CCC#Cc2cccc3c2CN(C2CCC(=O)NC2=O)C3=O)CC1 (some centres not stated) | 1200 | 73 | Activity [4]: Active; Activity [5]: Active |
| CN1CC[C@H]2CC[C@@H](C(=O)N[C@@H](CCC(N)=O)C(=O)N[C@@H](C(=O)N3CCC(CCC#Cc4cccc5c4CN(C4CCC(=O)NC4=O)C5=O)CC3)C(C)(C)C)N2C(=O)[C@@H](NC(=O)c2cc3cc(C(F)(F)P(=O)(O)O)ccc3s2)C1 (some centres not stated) | 1010 | 80 |  |
| NC(=O)CC[C@H](NC(=O)[C@@H]1CC[C@@H]2CCN(C(=O)CCCCCC#Cc3cccc4c3CN(C3CCC(=O)NC3=O)C4=O)C[C@H](NC(=O)c3cc4cc(C(=O)P(=O)(O)O)ccc4[nH]3)C(=O)N21)C(=O)NC(c1ccccc1)c1ccccc1 (some centres not stated) | 400 | 88 | IC50 [11]: 22 nM; IC50 (SU-DHL-1): 300 nM; IC50 [12]: 470 nM |
| CN1CC[C@H]2CC[C@@H](C(=O)N[C@@H](CCC(N)=O)C(=O)N[C@H](C(=O)N3CCC(CCC#Cc4cccc5c4CN(C4CCC(=O)NC4=O)C5=O)CC3)c3ccccc3)N2C(=O)[C@@H](NC(=O)c2cc3cc(C(F)(F)P(=O)(O)O)ccc3s2)C1 (some centres not stated) | 300 | 86 |  |
| CN1CC[C@H]2CC[C@@H](C(=O)N[C@@H](CCC(N)=O)C(=O)N[C@H](CC(=O)N3CCC(C#Cc4cccc5c4CN(C4CCC(=O)NC4=O)C5)CC3)c3ccccc3)N2C(=O)[C@@H](NC(=O)c2cc3cc(C(F)(F)P(=O)(O)O)ccc3s2)C1 (some centres not stated) | > 5000 | 0 |  |
| CN1CC[C@H]2CC[C@@H](C(=O)N[C@@H](CCC(N)=O)C(=O)N[C@H](C(=O)N3CCC(CCC#Cc4cccc5c4CN(C4CCC(=O)NC4=O)C5=O)CC3)C3CCCCC3)N2C(=O)[C@@H](NC(=O)c2cc3cc(C(F)(F)P(=O)(O)O)ccc3s2)C1 (some centres not stated) | 260 | 91 |  |
| CN1CC[C@H]2CC[C@@H](C(=O)N[C@@H](CCC(N)=O)C(=O)N[C@H](C(=O)N3CCN(CCC#Cc4cccc5c4CN(C4CCC(=O)NC4=O)C5=O)CC3)c3ccccc3)N2C(=O)[C@@H](NC(=O)c2cc3cc(C(F)(F)P(=O)(O)O)ccc3s2)C1 (some centres not stated) | 2500 | 62 |  |
| CN1CC[C@H]2CC[C@@H](C(=O)N[C@@H](CCC(N)=O)C(=O)N[C@H](C(=O)NCCCCC#Cc3cccc4c3CN(C3CCC(=O)NC3=O)C4=O)c3ccccc3)N2C(=O)[C@@H](NC(=O)c2cc3cc(C(F)(F)P(=O)(O)O)ccc3s2)C1 (some centres not stated) | > 5000 | 42 |  |
| CCN1CC[C@H]2CC[C@@H](C(=O)N[C@@H](CCC(N)=O)C(=O)N[C@@H](Cc3ccc(F)c(F)c3)C(=O)N3CCC(CCC#Cc4cccc5c4CN(C4CCC(=O)NC4=O)C5=O)CC3)N2C(=O)[C@@H](NC(=O)c2cc3cc(C(F)(F)P(=O)(O)O)ccc3s2)C1 (some centres not stated) | 200 | 92 | Activity [4]: 80%; Activity [5]: 80%; IC50 [11]: 31 nM; IC50 (SU-DHL-1): 540 nM; IC50 [12]: 540 nM |
| CN1CC[C@H]2CC[C@@H](C(=O)N[C@@H](CCC(N)=O)C(=O)N[C@@H](Cc3ccc(F)cc3)C(=O)N3CCC(CCC#Cc4cccc5c4CN(C4CCC(=O)NC4=O)C5=O)CC3)N2C(=O)[C@@H](NC(=O)c2cc3cc(C(F)(F)P(=O)(O)O)ccc3s2)C1 (some centres not stated) | 90 | 94 | Activity [4]: 70%; Activity [5]: 50% |
